Measurements: publication PMC3856088, “Small Molecule Binding, Docking, and Characterization of the Interaction between Pth1 and Peptidyl-tRNA” (International Journal of Molecular Sciences, 2013)

Target: T1, E. coli Pth1 (Escherichia coli, UniProt P0A7D1)
T1 construct: gene pth; wild type, 15N-labelled, expressed in E. coli W3110, purified on His-Trap FF (tag not described), 21 kDa monomer
Assay: 1H-15N HSQC NMR titration, chemical shift perturbation mapping
Conditions: 20 mM Bis-Tris, 100 mM NaCl, 2 mM TCEP, pH 6.6, 25 °C; 200 uM 15N Pth1; ligand:protein up to 64:1; site opposite the substrate binding face

T1 sequence (P0A7D1 2-194): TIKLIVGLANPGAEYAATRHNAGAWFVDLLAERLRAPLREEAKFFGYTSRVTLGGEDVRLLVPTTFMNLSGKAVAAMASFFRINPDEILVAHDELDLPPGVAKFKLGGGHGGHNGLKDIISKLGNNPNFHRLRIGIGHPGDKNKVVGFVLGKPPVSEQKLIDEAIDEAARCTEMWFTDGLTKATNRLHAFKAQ

Compound: c1cc2c(cc1CN1CCNCC1)OCO2 [piperonylpiperazine]
- 1H-15N HSQC NMR titration, chemical shift perturbation mapping: The binding of piperonylpiperazine to wild type E. coli Pth1 was studied by NMR spectroscopy
